We go through 2 compounds from patent US20140148464A1, “SALT FORMS OF FATTY ACIDS FOR THE TREATMENT OF DRY EYE” (Thetis Pharmaceuticals LLC, priority 2012, published 2014).

A short description of this series: Rat oral pharmacokinetics (plasma eicosapentaenoic acid after oral gavage). It counts as in vivo. As to conditions: Sprague-Dawley rats, oral gavage 40 mg/kg in 0.5% carboxymethyl cellulose, analyte EPA in plasma, mean of 6 rats. The method, then:
Oral pharmacokinetic parameters of piperazine di-eicosapentaenoate, prepared by the procedure described in Example 2, were determined in Sprague-Dawley rats. Piperazine di-eicosapentaenoate was administered by oral gavage as an aqueous solution in 0.5% carboxymethyl cellulose to 6 Sprague-Dawley rats, 3 males and 3 females. Rats were dosed at 40 mg/kg. Blood samples were obtained from each rat by jugular vein catheter. […] Blood samples were centrifuged to separate red blood cells and the resulting plasma samples were analyzed for eicosapentaenoic acid. Calculated pharmacokinetic parameters shown below in Table 1 are mean values from 6 rats. […] Rats were dosed at 40 mg/kg. Blood samples were obtained from each rat by jugular vein catheter. […] Blood samples were centrifuged to separate red blood cells and the resulting plasma samples were analyzed for eicosapentaenoic acid. Calculated pharmacokinetic parameters shown below (Table 2) are mean values from 6 rats.

Each structure is given as a SMILES string. Where a name gives a salt, the structure may show the parent alone. Read-outs that look alike come from different tables or passages of the source.

For `CC/C=C\C/C=C\C/C=C\C/C=C\C/C=C\CCCC(=O)O.CC/C=C\C/C=C\C/C=C\C/C=C\C/C=C\CCCC(=O)O.NCCN` [Ethylene diamine di-eicosapentaenoate, Ethane-1,2-diaminium di[(5Z,8Z,11Z,14Z,17Z)-icosa-5,8,11,14,17-pentaenoate]], the Cmax (as a rule, the maximum level reached in the sampled fluid or tissue) was 18370 ng/mL and the Tmax (in general, the time at which the peak concentration occurs) worked out at 2.0 h. For the same compound, the “AUC (0-24)” value (0-24 h) was 275.29 µg·h/mL.
Regarding `CC/C=C\C/C=C\C/C=C\C/C=C\C/C=C\CCCC(=O)O` [Piperazine di-eicosapentaenoate, Bis[(5Z,8Z,11Z,14Z,17Z)-icosa-5,8,11,14,17-pentaenoatel Piperazine Salt], the exposure AUC(0-t) (commonly the area under the concentration-time curve up to a stated or last time point) (both sexes, rat, 0-24 h) worked out at 135 µg·h/mL. The Cmax (both sexes, rat, read-out: Cmax) turned out to be 28200 ng/mL. Besides, the time of peak concentration (Tmax) (both sexes, rat, read-out: Tmax) is 1 h.
